# Tests used:
# eyelash hair growth = assay: appearance of lashes and hair around the eyes of glaucoma patients administering bimatoprost in only one eye (slit lamp biomicroscope); format: in vivo, human; details: 0.03% ophthalmic solution, more than 3 months, treated vs control eye
# Procedure: A study is initiated to systematically evaluate the appearance of lashes and hair around the eyes of patients who are administering bimatoprost in only one eye. The study involves 10 subjects, 5 male, 5 female, average age 70 years, (ranging from 50-94 years). All patients have glaucoma. Each subject is treated daily by the topical application of one drop of bimatoprost at a dosage of 1.5 µg/ml/eye/day (0.03%, by weight, ophthalmic solution, sold under the names Lumigan® and Latisse® by Allergan, Irvine, Calif., U.S.A.) to the region of one eye by instilling the drop onto the surface of the eye. The region of the fellow control eye is not treated with bimatoprost and served as a control.
# In the course of treatment with eye drops, there is typically spontaneous tearing, and excess fluid from the drops and associated tears gathers at the lid margins. In the course of wiping the drug containing fluid from the lid margins and adjacent lid, a thin film of the fluid is routinely spread to contact the adjacent skin of the lid area.
# The study is limited to subjects who have administered bimatoprost to one eye for more than 3 months. The mean duration of exposure to bimatoprost prior to assessing the parameter of lash growth between the control and study eye is 129 days (range 90-254 days). Observations are made under high magnification at the slit lamp biomicroscope. Documentation of differences between the control and treatment areas is accomplished using a camera specially adapted for use with the slit lamp biomicroscope. The results of the observations are as follows: Length of lashes: Increased length of eyelashes is regularly observed on the side treated with bimatoprost. The difference in length varies from approximately 10% to as much as 30%. […] In areas where there are a large number of lashes in the control eye, the increased number of lashes in the bimatoprost-treated eye gave the lashes on the treated side a more thickly matted overall appearance. […] These long, thick lash-like hairs were present in the central portion of the lids of several patients in a linear arrangement just above the lash line. Hairs are present at similar locations in the control eyes but are by contrast thinner or more fine in appearance, have less luster and pigment and are more flat against the skin of the lid typical of vellus or intermediate hairs. In several patients, lash-like terminal hairs grow luxuriantly in the medial canthal area in the treated eye. In the corresponding control eye, vellus hairs are seen at the same location. Lash-like hairs are also present in the lateral canthal area of the treated eye but not the control eye in several subjects. […]
# [1] = powder; cited from earlier work
smiles,measurement,setting,value
"CCNC(=O)CCC/C=C\C[C@@H]1[C@@H](/C=C/[C@@H](O)CCc2ccccc2)[C@H](O)C[C@@H]1O [bimatoprost, (Z)-7-[(1R,2R,3R,5S)-3,5Dihydroxy-2-[(1E,3S)-3-hydroxy-5-phenyl-1-pentenyl]cyclopentyl]-5-N-ethylheptenamide]",Auxiliary lash-like hair growth,eyelash hair growth,apparent increase in lash-like hair in transitional areas adjacent to areas of normal lash distribution
same,Number of lashes,eyelash hair growth,Increased numbers of lashes are observed in the treated eye of each patient
same,Perpendicular angulation of hairs,eyelash hair growth,leave the surface of the skin at a more acute angle
same,growth of vellus hair on lids,eyelash hair growth,"vellus hairs are increased in number, appear more robust and are much longer and thicker in treated than in control eyes"
same,solubility in ethyl alcohol,[1],very soluble
same,solubility in methyl alcohol,[1],very soluble
same,solubility in water,[1],slightly soluble
